# From patent US20160037775A1, “ACTIVE INGREDIENT COMBINATIONS HAVING INSECTICIDAL AND ACARICIDAL PROPERTIES” (priority 2010, published 2016)
# Like-named read-outs stand apart in the source and are kept apart here.
# Columns and labels:
# Format in all cases: in vivo
# Myzus persicae = assay: whole plant or invertebrate; conditions: for pest or weed control at 0.16 g/ha / pest or weed control at 0.8 g/ha / pest or weed control at 20 g/ha / pest or weed control at 100 g/ha / pest or weed control at 4 g/ha: Myzus persicae
# Text: (§1) If the actual kill rate is greater than that calculated, the kill rate of the combination is superadditive, which means that a synergistic effect is present. In this case, the kill rate actually observed must be greater than the value calculated from the above formula for the expected kill rate (E).
# (§2) • 78 parts by weight of acetone • 1.5 parts by weight of dimethylformamide Emulsifier: 0.5 part by weight of alkylaryl polyglycol ether
# (§3) To produce an appropriate active ingredient formulation, 1 part by weight of active ingredient is mixed with the stated amounts of solvent and emulsifier, and the concentrate is diluted with emulsifier-containing water to the desired concentration.
# After the desired time, the kill in % is determined. 100% means that all aphids have been killed; 0% means that no aphids have been killed. The kill rates determined are entered into Colby's formula.
# Tetranychus urticae = assay: Tetranychus test (OP-resistant/spray treatment); conditions: for pest or weed control at 4 g/ha / pest or weed control at 20 g/ha / pest or weed control at 100 g/ha: Tetranychus urticae
# Text: (§4) The expected action for a given combination of two active ingredients can be calculated according to S. R. Colby, Weeds 15 (1967), 20-22 as follows:
# (§5) • X is the kill rate, expressed in % of the untreated control, in the case of use of active ingredient A in an application rate of m g/ha or in a concentration of m ppm, • Y is the kill rate, expressed in % of the untreated control, in the case of use of active ingredient B in an application rate of n g/ha or in a concentration of n ppm, and • E is the kill rate, expressed in % of the untreated control, in the case of use of active ingredients A and B in application rates of m and n g/ha or in a concentration of m and n ppm, then
# as §1, §2, §3
# Discs of bean leaves (Phaseolus vulgaris) infested by all stages of the two-spotted spider mite (Tetranychus urticae) are sprayed with an active ingredient formulation of the desired concentration.
# After the desired period of time, the effect in % is determined. 100% means that all of the spider mites have been killed; 0% means that none of the spider mites have been killed.
# Phaedon cochleariae = assay: whole plant or invertebrate; conditions: for pest or weed control at 0.16 g/ha / pest or weed control at 0.8 g/ha: Phaedon cochleariae, 144 h, after 6 d, read-out: Kill rate in % after 6 d
# Text: as §4, §5, §1, §2, §3
# Cabbage leaves (Brassica oleracea) are treated by spraying with the active ingredient formulation of the desired concentration and populated with larvae of the mustard beetle (Phaedon cochleariae) while the leaves are still moist.
# After the desired period of time, the kill rate in % is determined. 100% means that all beetle larvae have been killed; 0% means that none of the beetle larvae have been killed. The kill rates determined are entered into Colby's formula.
# [1] = 144 h, after 6 d, read-out: Kill rate in % after 6 d
# [2] = 24 h, after 1 d, read-out: Kill rate in % after 1 d
# [3] = 48 h, 4 g/ha, after 2 d, applied individually, read-out: Kill rate in % after 2 d
# [4] = 24 h, 20 g/ha, after 1 d, read-out: Kill rate in % after 1 d
# [5] = 48 h, 20 g/ha, after 2 d, applied individually, read-out: Kill rate in % after 2 d
# [6] = 144 h, read-out: Kill rate in % after 6 d
structure (smiles),measurement,setting,value
C/C(=N\C#N)N(C)Cc1ccc(Cl)nc1 [acetamiprid],pest or weed control at 0.16 g/ha,Myzus persicae; [1],0%
"Cc1cc(Cl)cc(C)c1C1=C(O)C2(CCC3(CC2)OCCO3)NC1=O [11-(4-chloro-2,6-dimethylphenyl)-12-hydroxy-1,4-dioxa-9-azadispiro[4.2.4.2]tetradec-11-en-10-one]",pest or weed control at 0.8 g/ha,Myzus persicae; [1],0%
CC1(C)[C@H](C(=O)O[C@H](C#N)c2cccc(Oc3ccccc3)c2)[C@@H]1C=C(Br)Br [deltamethrin],pest or weed control at 0.8 g/ha,Myzus persicae; [2],0%
CCOCn1c(-c2ccc(Cl)cc2)c(C#N)c(Br)c1C(F)(F)F [chlorfenapyr],pest or weed control at 0.16 g/ha,Myzus persicae; [1],0%
same,pest or weed control at 0.8 g/ha,Myzus persicae; [1],0%
same,pest or weed control at 4 g/ha,Tetranychus urticae; [3],10%
N#CCNC(=O)c1cnccc1C(F)(F)F [flonicamid],Kill rate in % after 1 d,"Myzus persicae; 20 g/ha, after 1 d",0%
Cc1cc(C)c(C2=C(OC(=O)CC(C)(C)C)C3(CCCC3)OC2=O)c(C)c1 [spiromesifen],Kill rate in % after 1 d,"Myzus persicae; 4 g/ha, after 1 d",0%
same,Kill rate in % after 6 d,"Tetranychus urticae; 4 g/ha, after 6 d, applied individually",70%
same,Kill rate in % after 6 d,"Tetranychus urticae; 20 g/ha, after 6 d, applied individually",80%
O=[N+]([O-])NC1=NCCN1Cc1ccc(Cl)nc1 [imidacloprid],pest or weed control at 0.8 g/ha,Myzus persicae; [2],0%
CNC(=O)c1cc(C#N)cc(C)c1NC(=O)c1cc(Br)nn1-c1ncccc1Cl [cyantraniliprole],pest or weed control at 0.16 g/ha,Myzus persicae; [1],0%
same,Kill rate in % after 2 d,"Phaedon cochleariae; 0.16 g/ha, after 2 d",0%
same,pest or weed control at 0.16 g/ha,Phaedon cochleariae; 0.16 g/ha,0%
CNC(=O)Oc1cc(C)c(SC)c(C)c1 [methiocarb],pest or weed control at 20 g/ha,Myzus persicae; [4],0%
"O=C1C=C(N(Cc2ccc(Cl)nc2)CC(F)F)CO1 [4-{[(6-chloropyrid-3-yl)methyl](2,2-difluoroethyl)amino}furan-2(5H)-one]",pest or weed control at 20 g/ha,Myzus persicae; [4],0%
same,pest or weed control at 20 g/ha,Tetranychus urticae; [5],0%
CC1=NNC(=O)N(/N=C/c2cccnc2)C1 [pymetrozine],pest or weed control at 100 g/ha,"Myzus persicae; 24 h, 100 g/ha, after 1 d, read-out: Kill rate in % after 1 d",0%
CS/C(C)=N\OC(=O)N(C)SN(C)C(=O)O/N=C(\C)SC [thiodicarb],pest or weed control at 20 g/ha,Myzus persicae; [4],0%
same,pest or weed control at 100 g/ha,"Tetranychus urticae; 48 h, 100 g/ha, after 2 d, applied individually, read-out: Kill rate in % after 2 d",0%
Cc1cc(C(F)(C(F)(F)F)C(F)(F)F)ccc1NC(=O)c1cccc(I)c1C(=O)NC(C)(C)CS(C)(=O)=O [flubendiamide],pest or weed control at 0.8 g/ha,Phaedon cochleariae,0%
same,pest or weed control at 20 g/ha,Tetranychus urticae; [5],0%
N#Cc1ccc(CC(=NNC(=O)Nc2ccc(OC(F)(F)F)cc2)c2cccc(C(F)(F)F)c2)cc1 (mixture of isomers) [metaflumizone],Kill rate in % after 1 d,"Myzus persicae; 20 g/ha, after 1 d",0%
CC(C)c1cc(Oc2ccccc2)cc(C(C)C)c1NC(=S)NC(C)(C)C [diafenthiuron],pest or weed control at 100 g/ha,"Myzus persicae; 24 h, read-out: Kill rate in % after 1 d",0%
same,pest or weed control at 20 g/ha,Myzus persicae; [6],70%
same,pest or weed control at 100 g/ha,"Tetranychus urticae; 48 h, read-out: Kill rate in % after 2 d",0%
same,pest or weed control at 20 g/ha,Tetranychus urticae; [6],10%
"Fc1cncc(-c2ncc(-c3cccc(-c4ncccn4)n3)s2)c1 [2-{6-[2-(5-fluoropyridin-3-yl)-1,3-thiazol-5-yl]pyridin-2-yl}pyrimidine]",pest or weed control at 0.8 g/ha,Myzus persicae; [1],70%
same,pest or weed control at 0.16 g/ha,Phaedon cochleariae; 0.16 g/ha,0%
CCOC(=O)OC1=C(c2cc(C)ccc2C)C(=O)N[C@]12CC[C@@H](OC)CC2 [spirotetramat],pest or weed control at 4 g/ha,Tetranychus urticae; [3],0%
CC1(C)C(C=C(Cl)Cl)C1C(=O)OC(C#N)c1cccc(Oc2ccccc2)c1 (stereo not shown) [cypermethrin],pest or weed control at 4 g/ha,"Myzus persicae; 24 h, 4 g/ha, after 1 d, read-out: Kill rate in % after 1 d",80%
same,pest or weed control at 0.16 g/ha,Phaedon cochleariae; 0.16 g/ha,0%
CCCSP(=O)(OCC)SCCC [ethoprophos],pest or weed control at 4 g/ha,Myzus persicae; [6],0%
same,pest or weed control at 0.8 g/ha,Phaedon cochleariae,0%
N#C/N=C1\SCCN1Cc1ccc(Cl)nc1 [thiacloprid],pest or weed control at 20 g/ha,Myzus persicae; [4],80%
same,pest or weed control at 0.8 g/ha,Myzus persicae; [1],80%
Cc1c(F)c(F)c(COC(=O)[C@@H]2[C@H](/C=C(\Cl)C(F)(F)F)C2(C)C)c(F)c1F (racemic) [tefluthrin],pest or weed control at 20 g/ha,"Tetranychus urticae; 144 h, 20 g/ha, after 6 d, applied individually, read-out: Kill rate in % after 6 d",0%
